# Measurements as given in PMC12022973, “Proteomimetic Strategy for the Modulation of Intrinsically Disordered Protein MYC” (Journal of the American Chemical Society, 2025).
# Starred links: 1 amine or outer side, 2 acyl side, 3 side chain; linkers in the order of their positions; H or OH if unused. Positions of bridges follow the written chain, without caps; N, C: chain ends. Residues, ends and D or L forms follow the SMILES beside them. Chains are numbered I, II in the order given. X1 = c1cc(C[*:1])ccc1COCc1ccc(C[*:2])cc1
# Columns and labels:
# [1] = target: T1, full-length His6-Max (MAX^1-160) (Homo sapiens, UniProt P61244); assay: Fluorescence polarization direct binding to His6-MAX; conditions: FP direct binding; 15 nM FITC-labeled peptide; His6-MAX from 10 μM; 1X PBS, 1 mM DTT, 5% glycerol, 0.1% pluronic acid, pH 6.7; 25 °C
# T1 construct: N.B. (MAX^1-160)
# T1 sequence (P61244 whole entry): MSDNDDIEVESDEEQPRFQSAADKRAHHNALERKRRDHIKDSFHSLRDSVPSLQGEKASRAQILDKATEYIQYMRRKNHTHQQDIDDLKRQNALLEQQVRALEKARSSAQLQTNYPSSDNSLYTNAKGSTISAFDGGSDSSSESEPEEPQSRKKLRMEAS
# Protocol: Fluorescence Polarization Binding Assay
# The relative affinities of FITC-CHDMax-1 to His6-Myc353-436 and full-length His6-Max were
# determined using fluorescence polarization-based direct binding assay. The polarization
# experiments were performed using a DTX 880 Multimode Detector (Beckman) at 25 °C with
# excitation and emission wavelengths of 485 and 525 nm, respectively. Each polarization
# experiment was performed in a 96-well round bottom plate (Greiner) in assay buffer: 1X PBS, 1
# mM DTT, 5% glycerol, 0.1% pluronic acid, pH 6.7. The binding affinity (KD) values reported for
# each peptide are from experiments performed in triplicate. Raw values were fit to a sigmoidal
# dose-response nonlinear regression model in GraphPad Prism 6.0.
# All binding experiments with FITC-labeled peptides to His6-Myc353-436 or His6-Max were performed
# under the same conditions. Briefly, serial dilutions of His6-Myc353-436 and His6-Max were made
# from 10 μM into 15 nM of FITC-labeled peptide in assay buffer. KD was determined using the
# KD1 = (RT*(1-FSB) + LST*FSB2)/FSB-LST
# RT = Total concentration of His6-Myc353-436 or His6-Max
# LST = Total concentration of FITC-labeled peptide
# FSB = Fraction of bound FITC-labeled peptide
# MYC/MAX complex = target: T2, MYC/MAX complex (Homo sapiens, UniProt P01106); assay: Fluorescence polarization direct binding to the MYC/MAX complex; conditions: FP direct binding of fluorescein-labeled peptide to preformed MYC/MAX heterodimer; read-out: CHD^Max-1 Binding Affinity, Kd (MYC/MAX)
# T2 construct: we used recombinant MYC protein (MYC^353–437); His6 (N)
# T2 sequence (P01106 368-452): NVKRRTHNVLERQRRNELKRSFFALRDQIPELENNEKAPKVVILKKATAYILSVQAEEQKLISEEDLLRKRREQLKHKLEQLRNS
# T2 sequence (P61244 whole entry partner): as the sequence (P61244 whole entry) above
# Protocol: pET151-D-TOPO-cMyc vector was kindly provided by Dr. Edward Prochownik from the
# Department of Pediatrics at UPMC Children’s Hospital of Pittsburgh. Expression and purification
# of Myc353-437 were performed using an established protocol with minor modifications.7 BL21(DE3)
# cells were used to express recombinant Myc353-437 protein. Bacteria were grown at 37 °C to OD600
# of 0.8 followed by 1 mM IPTG induction and 16-18h growth at RT. Cells were harvested via
# centrifugation at 4,000 rpm at 4 °C and the pellet was resuspended in 10 mL of lysis buffer (8 M
# urea, 100 mM NaH2PO4, 10 mM Tris HCl, pH 8) supplemented with protease inhibitor cocktail
# (PierceTM Protease Inhibitor Tablets) and benzonase nuclease. Suspensions were sonicated on
# ice using a Branson Cell Disruptor 200 and centrifuged at 12,000 rpm for 45 min at 4 °C. Clarified
# lysate was applied to a column containing pre-equilibrated HisPur Ni-NTA Superflow Agarose
# (ThermoFisher Scientific) for overnight at 4 °C. The resin beads were washed with 10 mL of
# additional lysis buffer followed by three washes of 10 mL wash buffer (8 M urea, 100 mM
# NaH2PO4, 10 mM Tris HCl, 10 mM imidazole). The target protein was eluted with elution buffer (8 […]
# Fluorescence Polarization Binding Assay […]
# determined using fluorescence polarization-based direct binding assay. […]
# from 10 μM into 15 nM of FITC-labeled peptide in assay buffer. KD was determined using the […]
smiles,measurement,setting,value
CC[C@H](C)[C@H](NC(=O)[C@H](CCCCN)NC(=O)[C@H](CCC(=O)O)NC(=O)[C@H](CCCNC(=N)N)NC(=O)[C@H](CC(C)C)NC(C)=O)C(=O)N[C@@H](C)C(=O)N[C@H](C(=O)N[C@@H](CC(C)C)C(=O)N[C@@H](CCC(N)=O)C(=O)N[C@@H](Cc1c[nH]c2ccccc12)C(=O)N[C@@H](CSCc1ccc(COCc2ccc(CSC[C@H](NC(=O)[C@H](CC(C)C)NC(=O)[C@H](CCC(=O)O)NC(=O)[C@H](CCC(=O)O)NC(=O)[C@@H](NC(=O)[C@H](CCC(=O)O)NC(=O)[C@H](Cc3c[nH]c4ccccc34)NC(=O)[C@H](CCC(N)=O)NC(=O)[C@H](Cc3c[nH]cn3)NC(=O)[C@@H](NC(=O)[C@H](CCC(=O)O)NC(=O)[C@H](CC(N)=O)NC(=O)[C@H](CCCCN)NC(=O)[C@H](CCCNC(=N)N)NC(=O)[C@H](CCCNC(=N)N)NC(=O)[C@H](CC(C)C)NC(C)=O)[C@@H](C)O)[C@@H](C)CC)C(N)=O)cc2)cc1)C(=O)N[C@H](C(=O)N[C@@H](CCC(=O)O)C(=O)N[C@@H](CCC(=O)O)C(=O)N[C@@H](CC(C)C)C(=O)N[C@@H](CCCNC(=N)N)C(=O)N[C@@H](CCCCN)C(N)=O)[C@@H](C)CC)[C@@H](C)O [CHD^Max-1] (I: Ac-LREKIATLQWCIEELRK-NH2 / II: Ac-LRRKNETHQWEIEELC-NH2; linker I:11-II:16 via X1),"CHD^Max-1 Binding Affinity, Kd (MAX^1-160)",[1],N.B.
same,Kd,MYC/MAX complex,0.46 ± 0.15 µM
